Data published in publication PMC5332298 (Nature cell biology, 2017).
Where two headings read alike, the source gives them in different places. One block for each molecule: values may come before it.

Tests used:
[1] = system: LINK-A-PIP3 interaction in MDA-MB-231 cells; experiment: RIP assay using a PIP3 antibody; conditions: MDA-MB-231 cells treated with PI3K inhibitor
AKT-PIP3 binding = AKT-PIP3 binding (Homo sapiens, UniProt P31749); experiment: biochemical
MDA-MB-231 spheroids [2] = experiment: 3-D spheroid fluorometric proliferation/viability assay; type: cell-based, Human; conditions: for proliferation (growth) of spheroids: 50 nM MK2206 or 25 nM perifosine, 4 days
MDA-MB-231 spheroids [3] = experiment: 3D spheroid BME cell invasion assay; type: cell-based, Human; conditions: 50 nM MK2206 or 25 nM perifosine, 4 days
[4] = system: MS2-LINK-A-PIP3 interaction in MDA-MB-231 cells; experiment: MS2-TRAP assay with PIP3 mass ELISA; type: cell-based, Human; conditions: cell permeable competitor 100 µM, 2 hrs
LINK-A-PIP3 interaction [5] = experiment: RNA-lipid vesicles; type: binding; conditions: 100:1 molar ratio to PIP3
LINK-A-PIP3 interaction [6] = experiment: RNA-lipid overlay assay on PIP arrays with soluble competitors; type: binding; conditions: 100:1 molar ratio to RNA
[7] = target: AKT (His6-tagged recombinant, ThermoFisher) (UniProt P31749 1-480); experiment: Alpha competition assay
AKT (His6-tagged recombinant, ThermoFisher), sequence (P31749 whole entry): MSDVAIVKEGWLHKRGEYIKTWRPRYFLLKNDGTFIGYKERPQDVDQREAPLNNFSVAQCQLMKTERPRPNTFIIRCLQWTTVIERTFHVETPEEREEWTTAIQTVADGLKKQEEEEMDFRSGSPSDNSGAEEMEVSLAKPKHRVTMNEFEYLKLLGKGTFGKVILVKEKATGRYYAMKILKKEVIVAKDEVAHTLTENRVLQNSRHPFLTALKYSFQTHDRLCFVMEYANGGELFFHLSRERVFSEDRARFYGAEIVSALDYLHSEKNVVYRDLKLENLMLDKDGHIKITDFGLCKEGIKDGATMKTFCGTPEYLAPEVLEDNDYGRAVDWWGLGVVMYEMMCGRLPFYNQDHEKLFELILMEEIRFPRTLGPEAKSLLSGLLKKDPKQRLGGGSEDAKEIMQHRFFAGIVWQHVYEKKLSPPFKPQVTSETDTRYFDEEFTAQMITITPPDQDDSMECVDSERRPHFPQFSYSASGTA

AKT-PIP3 binding, sequence (P31749 whole entry): as above

Molecule: O=c1cc(N2CCOCC2)oc2c(-c3ccccc3)cccc12 [LY294002]
LINK-A-PIP3 interaction in vivo (RIP with PIP3 antibody) [1]: abolished

antagonism of the inhibitory effect by FL LINK-A (AKT-PIP3 binding; in vitro, presence of FL LINK-A): 753 fold
Molecule: NC1(c2ccc(-c3nc4ccn5c(=O)[nH]nc5c4cc3-c3ccccc3)cc2)CCC1 [MK2206]
proliferation (growth) of spheroids (MDA-MB-231 spheroids [2]; LINK-A PIP3-BM−/− spheroids): efficiently inhibited
proliferation (growth) of spheroids (MDA-MB-231 spheroids [2]; LINK-A PIP3BM+/+ spheroids): undetectable effect
invasion of spheroids (MDA-MB-231 spheroids [3]; LINK-A PIP3-BM−/− spheroids): efficiently inhibited
invasion of spheroids (MDA-MB-231 spheroids [3]; LINK-A PIP3BM+/+ spheroids): undetectable effect

antagonism of the inhibitory effect by FL LINK-A (AKT-PIP3 binding): 140 fold
IC50 (AKT-PIP3 binding; IC50 for inhibiting AKT-PIP3 binding): 4.8 µM
Molecule: CCCCCCCCCCCCCCCCCCOP(=O)([O-])OC1CC[N+](C)(C)CC1 [perifosine]
proliferation (growth) of spheroids (MDA-MB-231 spheroids [2]; LINK-A PIP3-BM−/− spheroids): efficiently inhibited
proliferation (growth) of spheroids (MDA-MB-231 spheroids [2]; LINK-A PIP3BM+/+ spheroids): undetectable effect
sensitization of LINK-A PIP3-BM−/− spheroids vs PIP3-BM+/+ (MDA-MB-231 spheroids [2]; spheroid viability IC50): about 20,000 fold
invasion of spheroids (MDA-MB-231 spheroids [3]; LINK-A PIP3-BM−/− spheroids): efficiently inhibited
invasion of spheroids (MDA-MB-231 spheroids [3]; LINK-A PIP3BM+/+ spheroids): undetectable effect

Molecule: O=P(O)(O)OC1[C@@H](OP(=O)(O)O)[C@H](OP(=O)(O)O)C(O)[C@H](OP(=O)(O)O)[C@H]1OP(=O)(O)O (stereo partly drawn) [PI(1,3,4,5,6)P5]
MS2-LINK-A-associated PIP3 (PIP3 mass ELISA) [4]: impaired

effect of competitor on recruitment of LINK-A ΔPC to PIP3-containing GUVs (LINK-A-PIP3 interaction [5]): abolished
effect of soluble competitor on LINK-A binding to PIP array (LINK-A-PIP3 interaction [6]): abolished
Molecule: O=P(O)(O)OC1[C@H](O)[C@H](OP(=O)(O)O)C(OP(=O)(O)O)[C@H](OP(=O)(O)O)[C@H]1O (stereo partly drawn) [IP4, D-myo-Inositol 1,3,4,5-tetrakisphosphate]

effect of soluble competitor on LINK-A binding to PIP array (LINK-A-PIP3 interaction [6]): abolished
Molecule: Phosphatidylinositol-3,4,5-trisphosphate [PIP3]

Molecule: CAGGGUAGACUCGCUCUG (structured_RNA) [LINK-A nt 1100-1117 WT]
binding result [7]: binds
